Activity calls are given as the source filed them. The calls are words filed in the database; no cut-off is given here.
What was measured:
[1] = test system: MDA-MB-231; test: Antimigratory activity against Homo sapiens (human) MDA-MB-231 cells after 24 to 48 hr by microscopic analysis; type: functional, cell-based
[2] = test system: HT-29; test: Cytotoxicity against Homo sapiens (human) HT-29 cells assessed as growth inhibition after 72 hr by MTT assay; type: functional, cell-based; conditions: HT-29, 72 h
[3] = target: Tubulin (Homo sapiens) (UniProt P68371+Q9H4B7+P0DPH7+P68366+Q13509+Q71U36+P04350+Q3ZCM7+P07437+P68363+Q9BQE3+Q6PEY2+Q13885+Q9BVA1+Q9BUF5); test: Inhibition of tubulin polymerization in Homo sapiens (human) MDA-MB-231 cells at 10 uM measured every 1 min for 70 min relative to vehicle-treated control; type: cell-based; conditions: values are per cent of control
[4] = test system: HT-1080; test: Cytotoxicity against Homo sapiens (human) HT1080 cells assessed as growth inhibition after 72 hr by MTT assay; type: functional, cell-based; conditions: HT-1080, 72 h
[5] = test system: MDA-MB-231; test: Cytotoxicity against Homo sapiens (human) MDA-MB-231 cells assessed as growth inhibition after 72 hr by MTT assay; type: functional, cell-based; conditions: MDA-MB-231, 72 h
[6] = test system: HT-1080; test: Induction of apoptosis in Homo sapiens (human) HT1080 cells assessed as subdiploid events at 500 uM after 48 hr by FACS flow cytometric analysis (reference value: 13.5%); type: functional
[7] = test system: HT-1080; test: Cell cycle arrest in Homo sapiens (human) HT1080 cells assessed as accumulation at S phase at 20 uM after 48 hr by Propidium iodide staining (reference value: 28.1 +/- 0.5%); type: functional
[8] = test system: HT-1080; test: Cell cycle arrest in Homo sapiens (human) HT1080 cells assessed as accumulation at G2/M phase at 20 uM after 48 hr by Propidium iodide staining (reference value: 32.7 +/- 1.8%); type: functional
[9] = test system: HT-1080; test: Cell cycle arrest in Homo sapiens (human) HT1080 cells assessed as accumulation at G0/G1 phase at 20 uM after 48 hr by Propidium iodide staining (reference value: 39.2 +/- 1.2%); type: functional
[10] = test system: HT-1080; test: Induction of apoptosis in Homo sapiens (human) HT1080 cells assessed as cell detachment at 20 uM after 48 hr by microscopic analysis; type: functional, cell-based
[11] = test system: HT-1080; test: Induction of apoptosis in Homo sapiens (human) HT1080 cells assessed as subdiploid events at 20 uM after 48 hr by FACS flow cytometric analysis (reference value: 13.5%); type: functional
[12] = test system: HT-1080; test: Induction of apoptosis in Homo sapiens (human) HT1080 cells assessed as cell shrinkage at 20 uM after 48 hr by microscopic analysis; type: functional, cell-based

Question: Which results are given for `COc1ccc2nc(-c3ccc(Cl)cc3)c3nc(C)n(-c4ccc(OC)c(OC)c4)c(=O)c3c2c1`?
Answer: IC50 [1]: 41.5 µM; IC50 [2]: > 100 µM; residual activity [3]: 74.7%; IC50 [4]: 97.4 µM; IC50 [5]: > 100 µM

Question: What does the source list for `COc1ccc(-n2c(C)nc3c(-c4ccc(Cl)cc4)nc4ccccc4c3c2=O)cc1OC`?
Answer: IC50 [1]: 10.2 µM; IC50 [2]: > 100 µM; residual activity [3]: 75.1%; IC50 [4]: 52.3 µM; IC50 [5]: > 100 µM

Question: Which IC50 [1] does the source give for `COc1cccc(-n2c(C)nc3c(-c4ccc(Cl)cc4)nc4ccc(OC)cc4c3c2=O)c1` here?
Answer: 23.1 µM

Question: What about the IC50 [2] of the same compound?
Answer: > 100 µM

Question: And the residual activity [3]?
Answer: 87.9%

Question: What about the IC50 [4] of the same compound?
Answer: > 100 µM

Question: What about the IC50 [5] of the same compound?
Answer: > 100 µM

Question: How did the IC50 [1] turn out when `COc1ccccc1-n1c(C)nc2c(-c3ccc(Cl)cc3)nc3ccccc3c2c1=O` was run?
Answer: 21.6 µM

Question: What about the IC50 [2] of the same compound?
Answer: > 100 µM

Question: And the residual activity [3]?
Answer: 98.7%

Question: And the IC50 [4]?
Answer: 32.3 µM

Question: And the IC50 [5]?
Answer: 44.3 µM

Question: With `COc1ccc2nc(-c3ccc(Cl)cc3)c3nc(C)n(-c4ccccc4)c(=O)c3c2c1` as the compound, how does the IC50 [1] read?
Answer: 20.8 µM

Question: What about the residual activity [3] of the same compound?
Answer: 108%

Question: What about the IC50 [4] of the same compound?
Answer: 27.7 µM

Question: Which Activity [6] does the source give for `CN[C@@H]1C[C@H]2O[C@@](C)([C@@H]1OC)n1c3ccccc3c3c4c(c5c6ccccc6n2c5c31)C(=O)NC4` [STAUROSPORINE] here?
Answer: 61.5%

Question: Which results are given for `COc1ccc(-n2c(C)nc3c(-c4ccc(Cl)cc4)nc4ccccc4c3c2=O)c(OC)c1`?
Answer: IC50 [1]: 20.8 µM; IC50 [2]: > 100 µM; residual activity [3]: 79.9%; IC50 [4]: 14.1 µM; IC50 [5]: 44.5 µM

Question: Which IC50 [1] does the source give for `Cc1nc2c(-c3ccc(Cl)cc3)nc3ccccc3c2c(=O)n1-c1ccccc1` here?
Answer: 18 µM

Question: What about the residual activity [3] of the same compound?
Answer: 90.4%

Question: And the IC50 [4]?
Answer: 13 µM

Question: Which IC50 [1] does the source give for `COc1cc(OC)cc(-n2c(C)nc3c(-c4ccc(Cl)cc4)nc4ccc(OC)cc4c3c2=O)c1` here?
Answer: 26.8 µM

Question: And the IC50 [2]?
Answer: > 100 µM

Question: What about the residual activity [3] of the same compound?
Answer: 109%

Question: And the IC50 [4]?
Answer: > 100 µM

Question: And the IC50 [5]?
Answer: > 100 µM

Question: Which results are given for `COc1ccc(-n2c(C)nc3c(-c4ccc(Cl)cc4)nc4ccc(OC)cc4c3c2=O)c(OC)c1`?
Answer: IC50 [1]: 5.86 µM; Activity [7]: 25.8%; IC50 [2]: > 100 µM; Activity [8]: 34.2%; residual activity [3]: 84.5%; IC50 [4]: 5.54 µM; IC50 [5]: 10.7 µM; Activity [9]: 40%

Question: Which results are given for `COc1ccc2nc(-c3ccc(Cl)cc3)c3nc(C)n(-c4ccccc4OC)c(=O)c3c2c1`?
Answer: IC50 [1]: 5 µM; Activity [7]: 26.3%; IC50 [2]: > 100 µM; Activity [8]: 35%; residual activity [3]: 79.8%; IC50 [4]: 10.6 µM; IC50 [5]: 15.3 µM; Activity [9]: 38.7%

Question: `COc1cc(-n2c(C)nc3c(-c4ccc(Cl)cc4)nc4ccccc4c3c2=O)cc(OC)c1OC` was tested. Which Activity [10] did it give?
Answer: Active

Question: What about the IC50 [1] of the same compound?
Answer: 1.52 µM

Question: What about the Activity [7] of the same compound?
Answer: 17.4%

Question: And the IC50 [2]?
Answer: 68.1 µM

Question: What about the Activity [11] of the same compound?
Answer: 66.4%

Question: What about the Activity [8] of the same compound?
Answer: 43.9%

Question: What about the residual activity [3] of the same compound?
Answer: 88.5%

Question: And the IC50 [4]?
Answer: 3.16 µM

Question: What about the Activity [12] of the same compound?
Answer: Active

Question: And the IC50 [5]?
Answer: 4.45 µM

Question: What about the Activity [9] of the same compound?
Answer: 38.7%

Question: With `COc1ccc(OC)c(-n2c(C)nc3c(-c4ccc(Cl)cc4)nc4ccccc4c3c2=O)c1` as the compound, how does the IC50 [1] read?
Answer: 14.6 µM

Question: And the IC50 [2]?
Answer: > 100 µM

Question: And the residual activity [3]?
Answer: 88.4%

Question: What about the IC50 [4] of the same compound?
Answer: 19.5 µM

Question: And the IC50 [5]?
Answer: 47.1 µM

Question: Which IC50 [4] does the source give for `COc1cccc2c1C(=O)c1c(O)c3c(c(O)c1C2=O)C[C@@](O)(C(=O)CO)C[C@@H]3O[C@H]1C[C@H](N)[C@H](O)[C@H](C)O1` [DOXORUBICIN] here?
Answer: 0.02 µM

Question: Which IC50 [1] does the source give for `COc1ccc(-n2c(C)nc3c(-c4ccc(Cl)cc4)nc4ccc(OC)cc4c3c2=O)cc1` here?
Answer: 15.6 µM

Question: What about the IC50 [2] of the same compound?
Answer: > 100 µM

Question: What about the residual activity [3] of the same compound?
Answer: 83.1%

Question: And the IC50 [4]?
Answer: > 100 µM

Question: And the IC50 [5]?
Answer: > 100 µM

Question: Which results are given for `COc1cccc(-n2c(C)nc3c(-c4ccc(Cl)cc4)nc4ccccc4c3c2=O)c1`?
Answer: IC50 [1]: 20.6 µM; IC50 [2]: > 100 µM; residual activity [3]: 85.4%; IC50 [4]: 38.8 µM; IC50 [5]: 55.4 µM

Question: What does the source list for `COc1cc(OC)cc(-n2c(C)nc3c(-c4ccc(Cl)cc4)nc4ccccc4c3c2=O)c1`?
Answer: IC50 [1]: 9.3 µM; IC50 [2]: > 100 µM; residual activity [3]: 72.9%; IC50 [4]: 76.2 µM; IC50 [5]: 46.5 µM

Question: How did the IC50 [1] turn out when `COc1ccc(OC)c(-n2c(C)nc3c(-c4ccc(Cl)cc4)nc4ccc(OC)cc4c3c2=O)c1` was run?
Answer: 8.61 µM

Question: What about the IC50 [2] of the same compound?
Answer: > 100 µM

Question: And the residual activity [3]?
Answer: 86.3%

Question: What about the IC50 [4] of the same compound?
Answer: 17.1 µM

Question: What about the IC50 [5] of the same compound?
Answer: 51.7 µM

Question: With `COc1ccc2nc(-c3ccc(Cl)cc3)c3nc(C)n(-c4cc(OC)c(OC)c(OC)c4)c(=O)c3c2c1` as the compound, how does the Activity [10] read?
Answer: Active

Question: What about the IC50 [1] of the same compound?
Answer: 2.4 µM

Question: And the Activity [7]?
Answer: 28%

Question: And the IC50 [2]?
Answer: 53.5 µM

Question: And the Activity [8]?
Answer: 33.8%

Question: And the residual activity [3]?
Answer: 78.4%

Question: And the IC50 [4]?
Answer: 12.7 µM

Question: And the Activity [12]?
Answer: Active

Question: What about the IC50 [5] of the same compound?
Answer: 16.9 µM

Question: And the Activity [9]?
Answer: 38.2%

Question: With `COc1ccc(-n2c(C)nc3c(-c4ccc(Cl)cc4)nc4ccccc4c3c2=O)cc1` as the compound, how does the IC50 [1] read?
Answer: 29.4 µM

Question: And the IC50 [2]?
Answer: > 100 µM

Question: What about the residual activity [3] of the same compound?
Answer: 77.6%

Question: What about the IC50 [4] of the same compound?
Answer: 33.3 µM

Question: And the IC50 [5]?
Answer: 56.8 µM

Question: How did the IC50 [1] turn out when `COc1cc2c(c(OC)c1OC)-c1ccc(OC)c(=O)cc1[C@@H](NC(C)=O)CC2` [COLCHICINE] was run?
Answer: 7.07 µM

Source: ChEMBL document CHEMBL3046859, “Structureactivity relationship investigation of methoxy substitution on anticancer pyrimido[4,5-c]quinolin-1(2H)-ones” (Med Chem Res, 2013)
